Laboratory results as given in patent US8017635B2, “Phenylalkyl substituted heteroaryl derivatives” (FMC Corporation, priority 2005, dated 2011).

Test system: tobacco budworm (Heliothis virescens [Fabricius])
Experiment: surface-treated diet test against tobacco budworm
Type: in vivo
Details: 0.25 millimolar candidate insecticide on the surface of the diet, second instar larvae, five-day exposure; for Percent Growth Inhibition: inhibition of insect weight relative to untreated controls; for Percent Mortality: mortality compared to the total number of insects infested
Method: Candidate insecticides were evaluated for activity against the tobacco budworm (Heliothis virescens [Fabricius]) in a surface-treated diet test.
In this test one mL of molten (65-70° C.) wheat germ-based artificial diet was pipetted into each well of a four by six (24 well) multi-well plate (ID# 430345-15.5 mm diameter×17.6 mm deep; Corning Costar Corp., One Alewife Center, Cambridge, Mass. 02140). The diet was allowed to cool to ambient temperature before treatment with the candidate insecticide.
For a determination of insecticidal activity, solutions of the candidate insecticides were prepared for testing using a Packard 204DT Multiprobe® Robotic System (Packard Instrument Company, 800 Research Parkway, Meriden, Conn. 06450), in which the robot first diluted a standard 50 millimolar DMSO solution of the candidate insecticide with a 1:1 water/acetone solution (V/V) in a ratio of 1:7 stock solution to water/acetone. The robot subsequently pipetted 40 microliters of the so-prepared solution onto the surface of the diet in each of three wells in the 24 multi-well plate. The process was repeated with solutions of seven other candidate insecticides. Once treated, the contents of the multi-well plate were allowed to dry, leaving […] of candidate insecticide on the surface of the diet, or a concentration of 0.25 millimolar. Appropriate untreated controls containing only DMSO on the diet surface were also included in this test. […]
In each well of the test plate was placed a second instar tobacco budworm larvae, weighing approximately five milligrams. After the larvae were placed in each well, the plate was sealed with clear polyfilm adhesive tape. The tape over each well was perforated to ensure an adequate air supply. The plates were then held in a growth chamber at 25° C. and 60% relative humidity for five days (light 14 hours/day).
After the five-day exposure period insecticidal activity for each rate of application of candidate insecticide was assessed as percent inhibition of insect weight relative to the weight of insects from untreated controls, and percent mortality when compared to the total number of insects infested.
The test compounds of formula I are identified by numbers that correspond to those in Table 1.

Molecule	Percent Growth Inhibition [%]	Percent Mortality [%]
5-(3,3-dichloroprop-2-enyloxy)-1,3-dichloro-2-(2-(4-(4-chlorophenyl)-1,2,3-triazolyl)ethoxy)benzene [Compound 1-2]	100	100
FC(F)(F)c1ccc(-c2cn(CCOc3c(Cl)cc(OCC=C(Cl)Cl)cc3Cl)nn2)cc1 [Compound 1-1]	100	100
ClC(Cl)=CCOc1cc(Cl)c(OCCn2cc(-c3ccc(Cl)c(Cl)c3)nn2)c(Cl)c1 [Compound 1-3]	100	100
ClC(Cl)=CCOc1cc(Cl)c(OCCn2cc(Cc3ccccc3)nn2)c(Cl)c1 [Compound 1-4]	100	100
ClC(Cl)=CCOc1cc(Cl)c(OCCn2cc(CC3CCCC3)nn2)c(Cl)c1 [Compound 1-5]	100	100
CC(C)Cc1cn(CCOc2c(Cl)cc(OCC=C(Cl)Cl)cc2Cl)nn1 [Compound 1-6]	49	0
CC(C)(C)c1cn(CCOc2c(Cl)cc(OCC=C(Cl)Cl)cc2Cl)nn1 [Compound 1-7]	100	100
ClC(Cl)=CCOc1cc(Cl)c(OCCn2cc(-c3ccc(Cl)cc3Cl)nn2)c(Cl)c1 [Compound 1-8]	33	0
FC(F)(F)c1ccc(-c2cn(CCCOc3c(Cl)cc(OCC=C(Cl)Cl)cc3Cl)nn2)cc1 [Compound 1-9]	100	100
ClC(Cl)=CCOc1cc(Cl)c(OCCn2cc(-c3ccccc3Cl)nn2)c(Cl)c1 [Compound 1-11]	100	100
ClC(Cl)=CCOc1cc(Cl)c(OCCn2cc(-c3cccc(Cl)c3)nn2)c(Cl)c1 [Compound 1-12]	100	100
FC(F)(F)c1cccc(-c2cn(CCOc3c(Cl)cc(OCC=C(Cl)Cl)cc3Cl)nn2)c1 [Compound 1-14]	100	100
Fc1ccc(-c2cn(CCOc3c(Cl)cc(OCC=C(Cl)Cl)cc3Cl)nn2)c(F)c1 [Compound 1-15]	100	100
CN(C)c1ccc(-c2cn(CCOc3c(Cl)cc(OCC=C(Cl)Cl)cc3Cl)nn2)cc1 [Compound 1-16]	91	67
ClC(Cl)=CCOc1cc(Cl)c(OCCn2cc(-c3ccc(Oc4ccccc4)cc3)nn2)c(Cl)c1 [Compound 1-17]	100	67
FC(F)(F)c1ccc(-c2cn(CCOc3c(Cl)cc(OCC=C(Cl)Cl)cc3Cl)nn2)nc1 [Compound 1-18]	100	100
C[Si](C)(C)c1cn(CCCOc2c(Cl)cc(OCC=C(Cl)Cl)cc2Cl)nn1 [Compound 1-19]	100	100
FC(F)(F)c1ccc(OCc2cn(CCOc3c(Cl)cc(OCC=C(Cl)Cl)cc3Cl)nn2)cc1 [Compound 1-69]	71	17
ClC(Cl)=CCOc1cc(Cl)c(OCCn2cnc(-c3ccccc3)c2)c(Cl)c1 [Compound 2-1]	100	100
ClC(Cl)=CCOc1cc(Cl)c(OCCn2nnc(-c3ccccc3)n2)c(Cl)c1 [Compound 7-1]	100	100
FC(F)(F)c1ccc(-c2nnn(CCOc3c(Cl)cc(OCC=C(Cl)Cl)cc3Cl)n2)cc1 [Compound 7-2]	100	100
FC(F)(F)c1cccc(-c2nnn(CCOc3c(Cl)cc(OCC=C(Cl)Cl)cc3Cl)n2)c1 [Compound 7-54, 5-(3,3-dichloroprop-2-enyloxy)-1,3-dichloro-2(-2-(5-(3-trifluoromethylphenyl)(1,2,3,4-tetraazol-2-yl))ethoxy)benzene]	100	100
ClC(Cl)=CCOc1cc(Cl)c(OCCn2nnc(-c3ccccc3Cl)n2)c(Cl)c1 [Compound 7-55]	100	100
ClC(Cl)=CCOc1cc(Cl)c(OCCn2nnc(-c3cccc(Cl)c3)n2)c(Cl)c1 [Compound 7-56]	100	100
FC(F)(F)c1ccc(-c2n[nH]c(CCOc3c(Cl)cc(OCC=C(Cl)Cl)cc3Cl)n2)cc1 [Compound 8-2, 5-(3,3-dichloroprop-2-enyloxy)-1,3-dichloro-2-(2-(3-(4-trifluoromethylphenyl)(1,2,4-triazolyl))ethoxy)benzene]	100	100
FC(F)(F)c1cccc(-c2noc(COc3c(Cl)cc(OCC=C(Cl)Cl)cc3Cl)n2)c1 [Compound 14-54, 5-(3,3-dichloroprop-2-enyloxy)-1,3-dichloro-2((3-(3-trifluoromethylphenyl)(1,2,4-oxadiazol-5-yl))methoxy)benzene]	100	100
